Experimental findings from ChEMBL document CHEMBL3045829, “Structure- and species-dependent insecticidal effects of neo-clerodane diterpenes” (J Agric Food Chem, 2000) are described below.

Assay [1] concerns Leptinotarsa decemlineata. Put plainly: Toxicity against Leptinotarsa decemlineata assessed as insect mortality administered through hemolymph injection after 72 hr. It is filed as functional. Further details: concentration or dose not given beside the values.
The subject of assay [2] is Spodoptera littoralis. Put plainly: Antifeedant activity against Spodoptera littoralis assessed as inhibition of feeding at 50 ug/cm2 by choice feeding assay relative to untreated control. Format: functional.
The subject of assay [3] is Leptinotarsa decemlineata. The assay can be described thus: Antifeedant activity against Leptinotarsa decemlineata assessed as inhibition of feeding at 50 ug/cm2 by no-choice feeding assay relative to untreated control. Format: functional.
Assay [4] concerns Spodoptera littoralis. The assay can be described thus: Nutritional effect in Spodoptera littoralis L6 larvae assessed as weight gain at 20 ug/insect administered through oral cannulation after 72 hr relative to untreated control. It is filed as functional.
Assay [5] deals with Spodoptera littoralis. Put plainly: Nutritional effect in Spodoptera littoralis L6 larvae assessed as food consumption at 20 ug/insect administered through oral cannulation after 72 hr relative to untreated control. It is filed as functional.
Assay [6] has as its system Leptinotarsa decemlineata. The assay can be described thus: Antifeedant activity against Leptinotarsa decemlineata assessed as inhibition of feeding at 50 ug/cm2 by choice feeding assay relative to untreated control. It is filed as functional.
The subject of assay [7] is Myzus persicae. Put plainly: Antifeedant activity against Myzus persicae (green peach aphid) assessed feeding settling inhibition index at 50 ug/cm2 relative to untreated control. It is filed as functional.
Assay [8] relates to Leptinotarsa decemlineata. Put plainly: Antifeedant activity against Leptinotarsa decemlineata assessed as inhibition of feeding by no-choice feeding assay relative to untreated control. It is filed as functional, organism-based.
Assay [9] deals with Leptinotarsa decemlineata. The assay can be described thus: Antifeedant activity against Leptinotarsa decemlineata assessed as inhibition of feeding by choice feeding assay relative to untreated control. Format: functional, organism-based.
The test system of assay [10] is Spodoptera littoralis. Put plainly: Antifeedant activity against Spodoptera littoralis assessed as inhibition of feeding by choice feeding assay relative to untreated control. It is filed as functional, organism-based.
The test system of assay [11] is Myzus persicae. The assay can be described thus: Potency index, ratio of antifeedant activity of farnesol to compound against Myzus persicae (green peach aphid) assessed feeding settling inhibition index at 50 ug/cm2. Format: functional.

Structures are written as SMILES.

As for `CC(=O)OC1C/C(=C/C[C@@]2(C)[C@H](C)CC[C@]3(C)[C@@H]2CCC[C@@]32CO2)C(OC(C)=O)O1` (stereo partly specified), the mortality in assay [1] is given as 42%. Also, the inhibition at 50 µg/cm2 in assay [2] came out at 73.9%; in assay [3], 73.3%; in assay [6], 91.2%. Also, the Activity was determined as 26.37% in [4] and 55.54% in assay [5].

`CC(C)=CCC/C(C)=C/CC/C(C)=C/CO` [FARNESOL] yielded an inhibition at 50 µg/cm2 in assay [7] of 90.6%.

Take `CC(=O)OC/C=C(\COC(C)=O)[C@@H](C[C@@]1(C)[C@H](C)CC[C@@]2(C)C(C)=CCC[C@H]12)OC(C)=O`: in assay [1], the mortality worked out at 8%. In addition, the inhibition at 50 µg/cm2 in assay [2] stood at 28.1%; in assay [3] it was 35.5%; in assay [7], 33.5%; in [6], 31.4%. In addition, the EC50 in assay [8], in assay [9] and in assay [10] was above 50 microg/cm2 in each case. The Activity in assay [4] came out at 30.69%; in [5], 40.02%.

`C=C1CCC[C@@H]2[C@@](C)(C/C=C(/C=O)CC=O)[C@H](C)CC[C@@]12C` [E-ISOLINARIDIAL]: the mortality in assay [1] worked out at 0%. Further, the “fold change (FC)” value in [11] was found to be 2. The inhibition at 50 µg/cm2 in [2] is 23.3%; in [3], 90.7%; in [7], 44.3%; in assay [6] it was 90.1%. Also, the EC50 in [8] is 8.5 microg/cm2; in assay [9], 10.5 microg/cm2; in assay [10], above 50 microg/cm2. In addition, the Activity in assay [4] was determined as 108.22%; in assay [5], 95.56%.

On to `C=C1CCC[C@@H]2[C@@](C)(C/C=C(\CC=O)C(C)=O)[C@H](C)CC[C@@]12C`, for which the mortality in assay [1] was found to be 26%. Further, the “fold change (FC)” value in assay [11] was found to be 2. Further, the inhibition at 50 µg/cm2 in assay [2] is 14.7%; in assay [3], 98.9%; in assay [7] it was 45.6%; in [6] it was 89.9%. For the same compound, the EC50 is 7.7 microg/cm2 in assay [8], 12.8 microg/cm2 in assay [9] and above 50 microg/cm2 in assay [10]. Further, the Activity in [4] was 104.33%; in assay [5] it was 92.7%.

As for `C=C1CCC[C@@H]2[C@@](C)(C/C=C3/CC(OC(C)=O)OC3OC(C)=O)[C@H](C)CC[C@@]12C` (stereo partly specified), the mortality in assay [1] was 25%. For the same compound, in assay [11], the “fold change (FC)” value came out at 2. The inhibition at 50 µg/cm2 in assay [2] turned out to be 11.2%; in assay [3], 28.8%; in assay [7] it was 43.1%; in assay [6], 33.8%. The EC50 in [8], in assay [9] and in assay [10] was above 50 microg/cm2 each time. Moreover, the Activity in assay [4] is recorded as 110.18%; in assay [5] it was 110.26%.

Turning to `C=C1CCC[C@@H]2[C@@](C)(CC(O)/C(=C/COC(C)=O)COC(C)=O)[C@H](C)CC[C@@]12C` (stereo partly specified), the mortality in [1] was determined as 26%. Further, in assay [11], the “fold change (FC)” value stood at 2. In addition, the inhibition at 50 µg/cm2 in [2] was 42.5%; in assay [3], 22.6%; in assay [7] it was 48.2%; in assay [6] it was 61.4%. The EC50 in [8], in assay [9] and in assay [10] was above 50 microg/cm2 in each case. Also, the Activity was found to be 106.65% in [4] and 88.33% in [5].

Regarding `CC(=O)OC/C=C(\COC(C)=O)C(C[C@@]1(C)[C@H](C)CC[C@]2(C)[C@@H]1CCCC2(O)CO)OC(C)=O` (stereo partly specified), in [1], the mortality was determined as 50%. For the same compound, the figures for the inhibition at 50 µg/cm2 in assay [2], in [3] and in [6] were 32.6%, 86.5% and 97.1%, respectively. Further, the Activity is 29.72% in assay [4] and 38.19% in [5]. Moreover, the EC50 in [10] is reported as above 50 microg/cm2.

On to `C=C1CCC[C@@H]2[C@@](C)(CC(OC(C)=O)/C(=C/COC(C)=O)COC(C)=O)[C@H](C)CC[C@@]12C` (stereo partly specified), for which the mortality in [1] amounted to 32%. Further, the inhibition at 50 µg/cm2 in [2] worked out at 18.4%; in assay [3], 11.6%; in assay [7], 19.7%; in [6], 38.5%. In addition, the EC50 in [8], in assay [9] and in [10] was above 50 microg/cm2 in each case. For the same compound, the Activity in [4] was 104.75%; in assay [5], 93.02%.

For the compound `CC(=O)OC/C=C(\COC(C)=O)C(C[C@@]1(C)[C@H](C)CC[C@]2(C)[C@@H]1CCCC21CO1)OC(C)=O` (stereo partly specified), in assay [1], the mortality is given as 50%. In addition, the inhibition at 50 µg/cm2 turned out to be 17.9% in assay [2], 40.7% in assay [3], 26.3% in assay [7] and 96.6% in assay [6]. The EC50 is given as above 50 microg/cm2 in assay [8], 6.4 microg/cm2 in assay [9] and above 50 microg/cm2 in assay [10]. The Activity in [4] turned out to be 31.03%; in assay [5], 39.74%.

Turning to `C[C@@H]1CC[C@@H]2C(C)(C)C[C@]3(C)CC=C[C@]123` [SILPHINENE], the mortality in assay [1] worked out at 24%. The EC50 in assay [8] is 2.7 microg/cm2; in assay [9] it was 0.27 microg/cm2.

Broadly, the mortality is the share of the test organisms that died. The term inhibition denotes the percentage by which the read-out fell short of the control.
